From patent US9040033B2, “Hydroxypropyl methyl cellulose acetate succinate with enhanced acetate and succinate substitution” (Dow Global Technologies LLC, priority 2010, dated 2015)

What was measured:
[1] = Microcentrifuge dissolution of 25 wt % phenytoin spray-dried dispersions in MFDS; type: physicochemical; conditions: dissolved phenytoin; SDD or bulk in MFDS pH 6.5, 37° C.
Text: In another separate embodiment, compositions containing the HPMCAS polymers are concentration enhancing. The term “concentration enhancing” means that the polymer is present in a sufficient amount in the composition so as to improve, or increase, the concentration of dissolved active agent in an aqueous use environment relative to a control composition free from the polymer. As used herein, a “use environment” can be either the in vivo environment of the gastrointestinal tract, subdermal, intranasal, buccal, intrathecal, ocular, intraaural, subcutaneous spaces, vaginal tract, arterial and venous blood vessels, pulmonary tract or intramuscular tissue of an animal, such as a mammal and particularly a human, or the in vitro environment of a test solution, such as phosphate buffered saline (PBS), simulated intestinal buffer without enzymes (SIN), a Model Fasted Duodenal (MFD) solution, or a solution to model the fed state. Concentration enhancement may be determined through either in vitro dissolution tests or through in vivo tests. It has been determined that enhanced active agent concentrations in in vitro dissolution tests in such in vitro test solutions provide good indicators of in vivo performance and bioavailability. An appropriate PBS solution is an aqueous solution comprising 20 mM sodium phosphate (Na2HPO4), 47 mM potassium phosphate (KH2PO4), 87 mM NaCl, and 0.2 mM KCl, adjusted to pH 6.5 with NaOH. An appropriate SIN solution is 50 mM KH2PO4 adjusted to pH 7.4. […] In particular, a composition may be dissolution-tested by adding it to an in vitro test solution and agitating to promote dissolution, or by performing a membrane-permeation test as described in U.S. Published Patent Application No. 2008/0262107, which is incorporated herein by reference. Spray-dried dispersions (SDDs) comprising 25 wt % phenyloin in HPMCAS-K(3), HPMCAS-K(1), HPMCAS-HG, and HPMCAS-LG were prepared as described in section VIII. […] Dissolved concentrations were measured by HPLC.

[2] = Phenytoin precipitation inhibition in PBS containing dissolved polymer; type: physicochemical; conditions: PBS pH 6.5, 37° C., 500 μg/mL if all dissolved
Procedure: Phenyloin was dissolved in methanol at a concentration of 18 mg/mL. The polymers were dissolved in PBS (20 mM sodium phosphate (Na2HPO4), 47 mM potassium phosphate (KH2PO4), 87 mM NaCl, and 0.2 mM KCl, adjusted to pH 6.5 with NaOH) at a concentration of 1.5 mg/mL. […] HPLC was performed using a ZORBAX® RX-C18 column (4.6×75 mm, 3.5 μm, Agilent Technologies) and a mobile phase comprising 0.2% H3PO4 in water, at a flow rate of 1.0 mL/min; 10 μL of each solution was injected. […] HPMCAS-K(3) and HPMCAS-LG have similar degrees of succinate substitution ([…], respectively (see Table 7)), but greatly different degrees of acetate substitution (1.41 and 0.47, respectively).

AUC90 [1]: 3,500 min * μg/mL | C1200 [1]: 40 µg/mL | Cmax90 [1]: 40 µg/mL | C1200 ([2]; dissolved phenytoin at 1200 min): 80 µg/mL | AUC90 ([2]; dissolved phenytoin, 0-90 min): 6,500 min * μg/mL | Cmax90 ([2]; dissolved phenytoin, maximum in first 90 min): 120 µg/mL
SMILES: O=C1NC(=O)C(c2ccccc2)(c2ccccc2)N1 [Phenytoin bulk, Phenytoin]
